Converted amounts (≈) assume the structure as drawn.

Holding throughout (assay type): functional
The subject of assay [1] is Mycobacterium tuberculosis. Put plainly: Antimicrobial activity against Mycobacterium tuberculosis in mouse assessed as microbial kill activity.
Assay [2] deals with Mycobacterium tuberculosis. The assay can be described thus: Antimicrobial activity against Mycobacterium tuberculosis H37Ra.
Assay [3] deals with Mycobacterium tuberculosis. The assay can be described thus: Antimicrobial activity against Mycobacterium tuberculosis H37Ra assessed as early bactericidal activity.
Assay [4] relates to Mycobacterium tuberculosis. The assay can be described thus: Antimicrobial activity against Mycobacterium tuberculosis H37Ra assessed as microbial kill activity.

For the compound `NNC(=O)c1ccncc1` [ISONIAZID], the log10cfu in assay [1] is recorded as 1.3. The same compound yielded a minimum inhibitory concentration (MIC) in assay [2] of 0.0156 µg/mL (≈ 0.114 µM). Further, in assay [3], the log10CFU/ml/day turned out to be 0.9. In addition, the log10CFU/ml in assay [4] was found to be 2.89.

For orientation: MIC means the smallest concentration in the dilution series that meets the test's criterion for growth inhibition. A low value points to inhibition by little substance.

(Values after ChEMBL document CHEMBL1150785 (Antimicrob Agents Chemother, 2007).)
